# Data from patent US20250206704A1, “ENGINEERED IONOPHORES FOR TRANSPORT OF METAL IONS” (The Brigham and Women's Hospital, Inc., priority 2022, published 2025).
# Assays:
# U2OS cells = assay: ICP-MS analysis of intracellular Zn(II) in U2OS cells; format: cell-based; conditions: 10 μM Zn(II) and 5 μM compound, 1 hour
# Procedure: Next, Applicants used inductively coupled plasma mass spectrometry (ICP-MS) to validate the imaging assay and the ionophores activity (FIG. 1F). While the intracellular Zn^II levels where similar between DMSO and chelator 1, Zn^II concentrations inside cells were 3-fold higher when Applicants co-treated ionophores 8 and 9.
# U2OS cells (˜200,000) were plated in a 6-well dish. After a day, the medium was aspirated, and Zn(II) (10 μM) and compounds (5 μM) containing media (2 mL) were added to each appropriate well. Cells were harvested by first washing each well with PBS containing EDTA (100 μM, 2×2.0 mL) and subsequently adding Milli-Q water ([…] to each well and incubating for 2-4 min. A portion of the resulting cell lysate (900 μL) was collected and transferred to an Eppendorf Safe-Lock tube, snap-frozen in N2(l), and then thawed at room temperature (RT) for a total of three freeze-thaw cycles. The insoluble lysate was pelleted (10 min at 10,000 g), and the soluble protein concentration of each sample was determined using the Pierce 660 nm Protein Assay in a 96-well plate (200 μL of reagent, 14 μL of sample, bovine serum albumin standard curve). Samples were then frozen and lyophilized overnight, and the resulting white, flaky solid was taken up in concentrated nitric acid (200 μL, ultrapure for trace metal analysis, BDH Aristar) and heated at 70° C. for 1 h. A portion of each sample (142 μL) was then diluted with water (2 mL) and a terbium internal standard (Agilent 5190-8590; stock at 10,000 parts per billion [ppb] in 10% nitric acid diluted to 100 ppb in Milli-Q water for addition to samples, 2 ppb final concentration), after which the metal content of the samples was assessed by ICP-MS. […] Therefore, 1 ppb was taken to be equal to 1 μg/L, and the molarity of a particular solution was considered equal to the measured concentration of a particular ion in ppb, divided by the molecular weight of the ion, multiplied by 10-6.
# [1] = Co-incubation kinetic study of ligand exchange with DA-ZP1 in presence of compound and Zn(II); format: physicochemical; conditions: 10 μM compound with 10 μM Zn^II, then 5 μM DA-ZP1
# Procedure: The compound in phosphate-buffered saline (PBS) was added to a 96-well microplate (250 μL, 10 μM per well, Nunc 96-well plates) and incubated with 10 μM of ZnCl2. […] Reaction kinetics were monitored by measuring the fluorescence of the activated fluorescein dye (λex=490 nm, λem=522 nm) over 2 h.
Compound,intracellular Zn^II level relative to DMSO (U2OS cells) [fold],ligand exchange with DA-ZP1 (fluorescence increase) [1]
"CC(C)[Si](c1cccc(CN(Cc2ccccn2)Cc2ccccn2)c1O)(C(C)C)C(C)C [Compound 9, 2-((bis(pyridin-2-ylmethyl)amino)methyl)-6-(triisopropylsilyl)phenol]",3,rapid increase in fluorescence
"CC(C)(C)[Si](C)(C)c1cccc(CN(Cc2ccccn2)Cc2ccccn2)c1O [Compound 8, 2-((bis(pyridin-2-ylmethyl)amino)methyl)-6-(tert-butyldimethylsilyl)phenol]",3,
